Source: paper PMC5218480 (PLoS ONE, 2017)

Test system: MV-4-11 cells
Experiment: Gene expression microarray analysis (Affymetrix PrimeView) and GSEA
Type: cell-based, human
Set-up: RFU PODN (11730768_x_at) / Fold change /veh PODN (11730768_x_at) / RFU LINC00158 (11744669_a_at) / Fold change /veh LINC00158 (11744669_a_at) / RFU DUSP10 (11751237_a_at) / Fold change /veh DUSP10 (11751237_a_at) / RFU ID3 (11757404_x_at) / Fold change /veh ID3 (11757404_x_at) / RFU PLEKHG5 (11737974_s_at) / Fold change /veh PLEKHG5 (11737974_s_at) / RFU LRRC4B (11730491_at) / Fold change /veh LRRC4B (11730491_at) / RFU GIMAP4 (11747438_a_at) / Fold change /veh GIMAP4 (11747438_a_at) / RFU KRT8 (11758183_x_at) / Fold change /veh KRT8 (11758183_x_at) / RFU CNN1 (11734310_a_at) / Fold change /veh CNN1 (11734310_a_at) / RFU VPS37D (11726825_at) / Fold change /veh VPS37D (11726825_at) / RFU C10orf10 (11716522_x_at) / Fold change /veh C10orf10 (11716522_x_at) / RFU KIR2DL2 /// KIR2DL4 /// KIR2DL5A /// KIR2DL5B /// KIR2DS1 /// KIR2DS2 /// KIR2DS3 /// KIR2DS4 /// KIR3DL3 /// KIR3DL3 /// KIR3DS1 (11738374_at) / Fold change /veh KIR2DL2 /// KIR2DL4 /// KIR2DL5A /// KIR2DL5B /// KIR2DS1 /// KIR2DS2 /// KIR2DS3 /// KIR2DS4 /// KIR3DL3 /// KIR3DL3 /// KIR3DS1 (11738374_at) / RFU C1QL1 (11718748_at) / Fold change /veh C1QL1 (11718748_at) / RFU TMPRSS4 (11747572_a_at) / Fold change /veh TMPRSS4 (11747572_a_at) / RFU HAMP (11756126_x_at) / Fold change /veh HAMP (11756126_x_at) / RFU RNFT2 (11725882_a_at) / Fold change /veh RNFT2 (11725882_a_at) / RFU NR4A2 (11747474_a_at) / Fold change /veh NR4A2 (11747474_a_at) / RFU ABCC12 (11746883_a_at) / Fold change /veh ABCC12 (11746883_a_at) / RFU TMEM136 (11760407_x_at) / Fold change /veh TMEM136 (11760407_x_at) / RFU CLDN22 /// WWC2 (11732394_at) / Fold change /veh CLDN22 /// WWC2 (11732394_at) / RFU HLA-DPB1 (11760878_x_at) / Fold change /veh HLA-DPB1 (11760878_x_at) / RFU SPINT1 (11716480_a_at) / Fold change /veh SPINT1 (11716480_a_at) / RFU GAP43 (11754022_s_at) / Fold change /veh GAP43 (11754022_s_at) / RFU A4GNT (11735810_at) / Fold change /veh A4GNT (11735810_at) / RFU PRB3 (11715151_x_at) / Fold change /veh PRB3 (11715151_x_at) / RFU TUBB4B (11761932_at) / Fold change /veh TUBB4B (11761932_at) / RFU CAPN14 (11732068_a_at) / Fold change /veh CAPN14 (11732068_a_at) / RFU TMCC2 (11721928_a_at) / Fold change /veh TMCC2 (11721928_a_at) / RFU IRGQ (11745062_a_at) / Fold change /veh IRGQ (11745062_a_at) / RFU FAM174B (11720279_a_at) / Fold change /veh FAM174B (11720279_a_at) / RFU TMPRSS4 (11748680_a_at) / Fold change /veh TMPRSS4 (11748680_a_at) / RFU FAM212B (11763350_a_at) / Fold change /veh FAM212B (11763350_a_at) / RFU PLEKHG5 (11743358_a_at) / Fold change /veh PLEKHG5 (11743358_a_at) / RFU ZSCAN30 (11745921_a_at) / Fold change /veh ZSCAN30 (11745921_a_at) / RFU CMKLR1 (11741424_a_at) / Fold change /veh CMKLR1 (11741424_a_at) / RFU LOC101060620 /// MAPK8IP1 (11723275_at) / Fold change /veh LOC101060620 /// MAPK8IP1 (11723275_at) / RFU SPTSSB (11747773_x_at) / Fold change /veh SPTSSB (11747773_x_at) / RFU PRSS12 (11739890_at) / Fold change /veh PRSS12 (11739890_at) / RFU BIN1 (11741810_x_at) / Fold change /veh BIN1 (11741810_x_at) / RFU WNT11 (11732464_a_at) / Fold change /veh WNT11 (11732464_a_at) / RFU C10orf10 (11716521_a_at) / Fold change /veh C10orf10 (11716521_a_at) / RFU C5orf56 (11738089_at) / Fold change /veh C5orf56 (11738089_at) / RFU CYB561 (11721691_x_at) / Fold change /veh CYB561 (11721691_x_at) / RFU ANKRD19P (11752326_a_at) / Fold change /veh ANKRD19P (11752326_a_at) / RFU OR2T12 /// OR2T33 /// OR2T8 (11738714_s_at) / Fold change /veh OR2T12 /// OR2T33 /// OR2T8 (11738714_s_at) / RFU VCAN (11748164_a_at) / Fold change /veh VCAN (11748164_a_at) / RFU JSRP1 (11732532_at) / Fold change /veh JSRP1 (11732532_at) / RFU KRTAP10-11 (11738290_x_at) / Fold change /veh KRTAP10-11 (11738290_x_at) / RFU MYO3A (11730013_a_at) / Fold change /veh MYO3A (11730013_a_at) / RFU EBF3 (11725865_a_at) / Fold change /veh EBF3 (11725865_a_at) / RFU CAMK2N1 (11719241_x_at) / Fold change /veh CAMK2N1 (11719241_x_at) / RFU C5orf56 (11738088_a_at) / Fold change /veh C5orf56 (11738088_a_at) / RFU OLFML3 (11715873_a_at) / Fold change /veh OLFML3 (11715873_a_at) / RFU LOC100653217 /// NTM (11731650_a_at) / Fold change /veh LOC100653217 /// NTM (11731650_a_at) / RFU MAPK11 (11762145_a_at) / Fold change /veh MAPK11 (11762145_a_at) / RFU FIZ1 (11724087_x_at) / Fold change /veh FIZ1 (11724087_x_at) / RFU OASL (11726364_x_at) / Fold change /veh OASL (11726364_x_at) / RFU SOX15 (11748057_x_at) / Fold change /veh SOX15 (11748057_x_at) / RFU CD79A (11719716_a_at) / Fold change /veh CD79A (11719716_a_at) / RFU HIST1H1D (11736915_at) / Fold change /veh HIST1H1D (11736915_at) / RFU CASKIN2 (11723855_a_at) / Fold change /veh CASKIN2 (11723855_a_at) / RFU LOC730098 (11760151_x_at) / Fold change /veh LOC730098 (11760151_x_at) / RFU OR4N2 (11742367_at) / Fold change /veh OR4N2 (11742367_at) / RFU PRRT2 (11749266_a_at) / Fold change /veh PRRT2 (11749266_a_at) / RFU SNX32 (11753110_a_at) / Fold change /veh SNX32 (11753110_a_at) / RFU CDHR5 (11726645_a_at) / Fold change /veh CDHR5 (11726645_a_at) / RFU RCAN1 (11760418_a_at) / Fold change /veh RCAN1 (11760418_a_at) / RFU FAM167A (11723789_a_at) / Fold change /veh FAM167A (11723789_a_at) / RFU FAM26E (11764081_at) / Fold change /veh FAM26E (11764081_at) / RFU ISYNA1 (11749810_s_at) / Fold change /veh ISYNA1 (11749810_s_at) / RFU ACY1 (11761880_at) / Fold change /veh ACY1 (11761880_at) / RFU 11764098_at / Fold change /veh 11764098_at / RFU SAMD14 (11745864_x_at) / Fold change /veh SAMD14 (11745864_x_at) / RFU NPB (11741838_a_at) / Fold change /veh NPB (11741838_a_at) / RFU TMPRSS6 (11731388_a_at) / Fold change /veh TMPRSS6 (11731388_a_at) / RFU KRTAP10-2 (11738614_at) / Fold change /veh KRTAP10-2 (11738614_at) / RFU ARHGAP8 /// PRR5-ARHGAP8 (11727945_x_at) / Fold change /veh ARHGAP8 /// PRR5-ARHGAP8 (11727945_x_at) / RFU KRTAP5-7 /// NADSYN1 (11734609_at) / Fold change /veh KRTAP5-7 /// NADSYN1 (11734609_at) / RFU RASL12 (11751679_a_at) / Fold change /veh RASL12 (11751679_a_at) / RFU CDKN2B (11736163_a_at) / Fold change /veh CDKN2B (11736163_a_at) / RFU PRF1 (11729649_at) / Fold change /veh PRF1 (11729649_at) / RFU, ZNF638 /// ZNF638-IT1 / Fold change vs veh, ZNF638 /// ZNF638-IT1 / RFU, PANK3 / Fold change vs veh, PANK3 / RFU, SH3YL1 / Fold change vs veh, SH3YL1 / RFU, ZEB2 / Fold change vs veh, ZEB2 / RFU, NRIP1 / Fold change vs veh, NRIP1 / RFU, PTTG1IP / Fold change vs veh, PTTG1IP / RFU, CAPN2 / Fold change vs veh, CAPN2 / RFU, MED14 / Fold change vs veh, MED14 / RFU, SNORA58 / Fold change vs veh, SNORA58 / RFU, C1orf63 / Fold change vs veh, C1orf63 / RFU, LRRFIP1 / Fold change vs veh, LRRFIP1 / RFU, NDUFAF7 / Fold change vs veh, NDUFAF7 / RFU, SLC12A2 / Fold change vs veh, SLC12A2 / RFU, IBTK / Fold change vs veh, IBTK / RFU, ESF1 / Fold change vs veh, ESF1 / Fold change vs veh, TMEM50B / RFU, TAOK1 / Fold change vs veh, TAOK1 / RFU, ACBD3 / Fold change vs veh, ACBD3 / RFU, TMA16 / Fold change vs veh, TMA16 / RFU, RWDD3 / Fold change vs veh, RWDD3 / RFU, BCAT1 / Fold change vs veh, BCAT1 / RFU, EDEM3 / Fold change vs veh, EDEM3 / RFU, TMEM33 / Fold change vs veh, TMEM33 / RFU, WDR75 / Fold change vs veh, WDR75 / RFU, AHCTF1 / Fold change vs veh, AHCTF1 / RFU, TFRC / Fold change vs veh, TFRC / RFU, ZDHHC17 / Fold change vs veh, ZDHHC17 / RFU, NOM1 / Fold change vs veh, NOM1 / RFU, ARL8B / Fold change vs veh, ARL8B / RFU, ZBTB11 / Fold change vs veh, ZBTB11 / RFU, TAMM41 / Fold change vs veh, TAMM41 / RFU, KIAA1704 /// LOC100996395 / Fold change vs veh, KIAA1704 /// LOC100996395 / RFU, ING1 / Fold change vs veh, ING1 / RFU, TRMT61B / Fold change vs veh, TRMT61B / RFU, FUBP3 / Fold change vs veh, FUBP3 / RFU, TP53 / Fold change vs veh, TP53 / RFU, TNKS2 / Fold change vs veh, TNKS2 / RFU, ZFP14 / Fold change vs veh, ZFP14 / RFU, ACTR2 / Fold change vs veh, ACTR2 / RFU, PPP3R1 / Fold change vs veh, PPP3R1 / RFU, PIK3R1 / Fold change vs veh, PIK3R1 / RFU, HNRNPA1 / Fold change vs veh, HNRNPA1 / RFU, RNF170 / Fold change vs veh, RNF170 / RFU, ZNF28 / Fold change vs veh, ZNF28 / RFU, RNGTT / Fold change vs veh, RNGTT / RFU, OGT / Fold change vs veh, OGT / RFU, BRD1 / Fold change vs veh, BRD1 / RFU, MARS / Fold change vs veh, MARS / RFU, ZNF655 / Fold change vs veh, ZNF655 / RFU, FAHD1 / Fold change vs veh, FAHD1 / RFU, BDP1 / Fold change vs veh, BDP1 / RFU, LRRCC1 / Fold change vs veh, LRRCC1 / RFU, ARID1A / Fold change vs veh, ARID1A / RFU, ZNF146 / Fold change vs veh, ZNF146 / RFU, ZNF330 / Fold change vs veh, ZNF330 / RFU, GPN3 / Fold change vs veh, GPN3 / RFU, C9orf123 / Fold change vs veh, C9orf123 / RFU, N4BP2L2 / Fold change vs veh, N4BP2L2 / RFU, ARFIP1 / Fold change vs veh, ARFIP1 / RFU, FAM179B / Fold change vs veh, FAM179B / RFU, BCL10 / Fold change vs veh, BCL10 / RFU, UHRF1BP1L / Fold change vs veh, UHRF1BP1L / RFU, BET1 / Fold change vs veh, BET1 / RFU, CNOT2 / Fold change vs veh, CNOT2 / RFU, ZNF268 / Fold change vs veh, ZNF268 / Fold change vs veh, ZNF507 / RFU, DGCR2 / Fold change vs veh, DGCR2 / RFU, WDSUB1 / Fold change vs veh, WDSUB1 / Fold change vs veh, HSP90B1 /// MIR3652 / RFU, ADSS / Fold change vs veh, ADSS / RFU, GK / Fold change vs veh, GK / RFU, ZNF148 / Fold change vs veh, ZNF148 / RFU, TAF9 / Fold change vs veh, TAF9 / RFU, SLC1A5 / Fold change vs veh, SLC1A5 / RFU, SLMO2 / Fold change vs veh, SLMO2 / RFU, ABCC4 / Fold change vs veh, ABCC4 / RFU, LOC101060439 /// RAP1B / Fold change vs veh, LOC101060439 /// RAP1B / RFU, RFX7 / Fold change vs veh, RFX7 / RFU, GTPBP10 / Fold change vs veh, GTPBP10 / RFU, CNEP1R1 / Fold change vs veh, CNEP1R1 / RFU, BIVM-ERCC5 /// ERCC5 / Fold change vs veh, BIVM-ERCC5 /// ERCC5 / RFU, ILF3 / Fold change vs veh, ILF3 / RFU 11762660_at / Fold change /veh 11762660_at / RFU VCAN (11757783_s_at) / Fold change /veh VCAN (11757783_s_at) / RFU DDX43 (11728927_at) / Fold change /veh DDX43 (11728927_at) / RFU KRT8 (11758188_x_at) / Fold change /veh KRT8 (11758188_x_at) / RFU NKD1 (11759106_at) / Fold change /veh NKD1 (11759106_at) / RFU SRD5A1 (11742802_a_at) / Fold change /veh SRD5A1 (11742802_a_at) / RFU TPSAB1 /// TPSB2 (11721975_s_at) / Fold change /veh TPSAB1 /// TPSB2 (11721975_s_at) / RFU GSTM3 (11746129_a_at) / Fold change /veh GSTM3 (11746129_a_at) / RFU IL23R (11737362_x_at) / Fold change /veh IL23R (11737362_x_at) / RFU TMEM51 (11727254_a_at) / Fold change /veh TMEM51 (11727254_a_at) / RFU PIWIL2 (11732686_x_at) / Fold change /veh PIWIL2 (11732686_x_at) / RFU ORM1 (11744905_x_at) / Fold change /veh ORM1 (11744905_x_at) / RFU CCDC152 (11743942_at) / Fold change /veh CCDC152 (11743942_at) / RFU ECM1 (11717891_a_at) / Fold change /veh ECM1 (11717891_a_at) / RFU IL23R (11748794_a_at) / Fold change /veh IL23R (11748794_a_at) / RFU TNFAIP8L3 (11732012_x_at) / Fold change /veh TNFAIP8L3 (11732012_x_at) / RFU MBOAT4 (11741988_at) / Fold change /veh MBOAT4 (11741988_at) / RFU 11764193_at / Fold change /veh 11764193_at / RFU TMEM53 (11763286_at) / Fold change /veh TMEM53 (11763286_at) / RFU MAGEB2 (11727129_at) / Fold change /veh MAGEB2 (11727129_at) / RFU TMEM200A (11744735_a_at) / Fold change /veh TMEM200A (11744735_a_at) / RFU CCDC152 (11751479_a_at) / Fold change /veh CCDC152 (11751479_a_at) / RFU FAM211A (11726209_a_at) / Fold change /veh FAM211A (11726209_a_at) / RFU RGS16 (11746705_a_at) / Fold change /veh RGS16 (11746705_a_at) / RFU VCAN (11755009_s_at) / Fold change /veh VCAN (11755009_s_at) / RFU RHOB (11743442_s_at) / Fold change /veh RHOB (11743442_s_at) / RFU RGS16 (11720943_a_at) / Fold change /veh RGS16 (11720943_a_at) / RFU RGS16 (11720944_at) / Fold change /veh RGS16 (11720944_at) / RFU, VPS4B / Fold change vs veh, VPS4B / RFU, CREB1 / Fold change vs veh, CREB1 / RFU, DNAJC13 / Fold change vs veh, DNAJC13 / RFU, GNAQ / Fold change vs veh, GNAQ / RFU, CDK5R1 / Fold change vs veh, CDK5R1 / RFU, ZRANB3 / Fold change vs veh, ZRANB3 / RFU, CUL4A / Fold change vs veh, CUL4A / RFU, CCNY / Fold change vs veh, CCNY / RFU, UFL1 / Fold change vs veh, UFL1 / RFU, COG3 / Fold change vs veh, COG3 / RFU, DIAPH2 / Fold change vs veh, DIAPH2 / RFU, SKA2 / Fold change vs veh, SKA2 / RFU, AFF3 / Fold change vs veh, AFF3 / RFU, LMF1 / Fold change vs veh, LMF1 / RFU, IPO11 / Fold change vs veh, IPO11 / RFU, DFFB / Fold change vs veh, DFFB / RFU, FOXP1 / Fold change vs veh, FOXP1 / RFU, CARD8 / Fold change vs veh, CARD8 / RFU, STRN3 / Fold change vs veh, STRN3 / RFU, ADK / Fold change vs veh, ADK / RFU, RASSF2 / Fold change vs veh, RASSF2 / RFU, WIPF1 / Fold change vs veh, WIPF1 / RFU, LARP1B / Fold change vs veh, LARP1B / RFU, RASA1 / Fold change vs veh, RASA1 / RFU, RB1 / Fold change vs veh, RB1 / RFU, PPFIA1 / Fold change vs veh, PPFIA1 / RFU, MAT2A / Fold change vs veh, MAT2A / RFU, CCT5 / Fold change vs veh, CCT5 / RFU, WDR92 / Fold change vs veh, WDR92 / RFU, CUX1 / Fold change vs veh, CUX1 / RFU, TTC7A / Fold change vs veh, TTC7A / RFU, TMEM135 / Fold change vs veh, TMEM135 / RFU, DEPTOR / Fold change vs veh, DEPTOR / RFU, CPM / Fold change vs veh, CPM / RFU, DNAJB6 / Fold change vs veh, DNAJB6 / RFU, CACNA2D3 / Fold change vs veh, CACNA2D3 / RFU, DTX4 / Fold change vs veh, DTX4 / RFU, TFCP2 / Fold change vs veh, TFCP2 / RFU, GMCL1 /// GMCL1P1 / Fold change vs veh, GMCL1 /// GMCL1P1 / RFU, AEBP2 / Fold change vs veh, AEBP2 / RFU, SNHG1 /// SNORD22 /// SNORD25 /// SNORD26 /// SNORD27 /// SNORD28 /// SNORD29 /// SNORD31 / Fold change vs veh, SNHG1 /// SNORD22 /// SNORD25 /// SNORD26 /// SNORD27 /// SNORD28 /// SNORD29 /// SNORD31 / Fold change (Aza/veh), C12orf56 (ProbeSet 11735607_a_at) / Fold change (ACY-1035/veh), C12orf56 (ProbeSet 11735607_a_at) / Fold change (Aza/veh), FGFR1OP (ProbeSet 11751329_s_at) / Fold change (ACY-1035/veh), FGFR1OP (ProbeSet 11751329_s_at) / Fold change (Aza/veh), VPS36 (ProbeSet 11739960_a_at) / Fold change (ACY-1035/veh), VPS36 (ProbeSet 11739960_a_at) / RFU SYPL1 (11715823_x_at) / Fold change /veh SYPL1 (11715823_x_at) / RFU IGFBP7 (11715501_s_at) / Fold change /veh IGFBP7 (11715501_s_at) / RFU REEP3 (11722064_at) / Fold change /veh REEP3 (11722064_at) / RFU IGLL1 (11728026_x_at) / Fold change /veh IGLL1 (11728026_x_at): dose or concentration left out as unconfirmed
Settings: ProbeSet 11731610_x_at; LIST B

In the case of `Nc1ccc(-c2cccs2)cc1NC(=O)c1ccc2c(c1)cc(C1CC1)n2CCN1CCOCC1` [ACY-1035], the “Fold change vs veh, KIAA1704 /// LOC100996395” value is reported as 0.91.
